Laboratory results: US12577230B2, “2-(3-pyridin-2-yl-4-quinolin-4-yl-pyrazol-1-yl)- acetamide derivatives as inhibitors of transforming growth factor-beta receptor I/ALK5” (AGOMAB SPAIN S.L.U., priority 2020, dated 2026)

What was measured:
Human TGFβR-1 = biological target: T1, Human TGFβR-1 (Homo sapiens, UniProt P36897); assay: In vitro enzyme assay: inhibition of TGFβR-1 (ADP-Glo kinase assay); assay type: biochemical; conditions: TGFβR-1 kinase 50 ng/well, 50 μM ATP, 120 min RT
T1 construct: purchased Promega V4092
T1 sequence (P36897 34-503): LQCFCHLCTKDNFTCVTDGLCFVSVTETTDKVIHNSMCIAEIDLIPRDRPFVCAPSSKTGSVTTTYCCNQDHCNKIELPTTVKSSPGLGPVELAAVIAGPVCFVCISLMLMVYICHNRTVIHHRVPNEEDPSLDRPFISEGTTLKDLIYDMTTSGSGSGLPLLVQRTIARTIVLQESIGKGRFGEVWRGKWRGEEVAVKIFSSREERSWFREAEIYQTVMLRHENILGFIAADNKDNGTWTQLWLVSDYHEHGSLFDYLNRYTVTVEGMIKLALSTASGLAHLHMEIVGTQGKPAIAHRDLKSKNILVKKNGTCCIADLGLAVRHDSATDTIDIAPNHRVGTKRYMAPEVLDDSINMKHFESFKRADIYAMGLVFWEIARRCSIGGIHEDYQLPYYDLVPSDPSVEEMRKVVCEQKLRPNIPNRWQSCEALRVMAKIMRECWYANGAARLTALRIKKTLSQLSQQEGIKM
Excerpt: In the present application are used the following abbreviations, with the corresponding definitions: • AcOH: Acetic Acid • ACVR2B: activin A receptor, type IIB • ALKn: activin receptor-like kinase n • ATP: adenosin triphosphate • Boc2O: tert-butyl dicarbonate • Boc: tert-Butoxycarbonyl • Clint: Intrinsic clearance • DIPEA: N,N-Diisopropylethylamine • DMA: Dimethylacetamide • DMAP: 4-Dimethylaminopyridine • DMF: N,N-Dimethylformamide • DMSO: Dimethyl sulfoxide • EDCl: N-(3-Dimethylaminopropyl)-N′-ethylcarbodiimide) • Et3N: Triethylamine • EtOAc: Ethyl acetate • EtOH: ethanol • FBS: Fetal bovine serum • H: hour • HATU: 1-[Bis(dimethylamino)methylene]-1H-1,2,3-triazolo[4,5-b]pyridinium 3-oxide hexafluorophosphate • HOBT: Hydroxybenzotriazole • HPLC: High-performance liquid chromatography • ^1H-NMR: Proton nuclear magnetic resonance • K2EDTA: ethylenediaminetetracetic acid dipotassium salt • LC: Liquid chromatography • LiHMDS: Lithium bis(trimethylsilyl)amide • LLOQ: lower limit of quantification • MeCN: Acetonitrile • MeOH: Methanol • Min: minutes • MS: Mass spectroscopy • MTBE: Methyl tert-butyl ether • NBS: N-Bromosuccinimide • NaCMC: Sodium carboxymethyl cellulose • Rt: retention time • RT: room temperature • Sem: 2-(Trimethylsilyl)ethoxymethyl • TGFβ: transforming growth factor-β • THF: Tetrahydrofuran • THF:EtOH: Tetrahydrofuran:ethanol • UPLC: ultra high-performance liquid chromatography • UV: Ultraviolet Pharmacological Activity In Vitro Enzyme Assay: Inhibition of TGFβR-1 Human TGFβR-1 inhibition experiments were carried out in a white 384-microplate low flange (Corning 3572) with ADP-Glo kinase Assay Kit (Promega V9101) and TGFβR-1 Kinase Enzyme System (Promega V4092). Test compounds and standard Galunisertib (Cayman 15312), 50 ng/well TGFβR-1 kinase and 50 μM ATP were added in a final volume of 10 μL/well, using Reaction buffer supplied by kit as assay buffer. The reaction mixture was incubated in gentle shaking for 120 min at RT, after incubation of 10 μL of ADP-Glo Reagent was added and incubated in gentle shaking for 40 min at RT. 20 μL of Kinase Detection Reagent was added and plate was incubated in gentle shaking for 30 min at RT. Luminescence (1000 ms) was measured in Perkin Elmer EnSpire Multimode plate reader. Results

[1] = Determination of plasma stability in human plasma; assay type: in vitro ADME; conditions: 10 μM, 37° C.
Method: Determination of Plasma Stability of Some Compounds
Human plasma pooled from healthy donors extracted in citrate tubes was employed in the assay. Briefly, plates containing 10 μM compounds in plasma (total volume: 50 μL) were incubated at 37° C. at the different times (0, 30, 120 and 360 min). Then 100 μl Acetonitrile were added for precipitating plasma protein, and the plate was centrifuged at 46000 g for 60 min at 5° C. Supernatant was taken and analysed by UPLC/MS/MS for sample quantification. Stationary phase: Reverse phase Acquity UPLC® BEH C18 1.7 μm (2.1 mm×50 mm) (Waters). Mobile phase: 0.1% Formic acid water/0.1% formic acid in acetonitrile.
Flow: 0.6 ml/min. The chromatographic equipment employed was an UPL QSM Waters Acquity. Compound concentrations were calculated from the MS peak areas.

ALK-5 = biological target: T2, ALK-5 (Homo sapiens, UniProt P36897); assay: Determination of the intracellular TGF-beta kinase activity (ALK-5), AlphaLISA SureFire p-SMAD3 in A549 cells; assay type: cell-based; conditions: A549 cell line, TGF-β2 activated, p-SMAD3(Ser423/425)
T2 construct: endogenous in cells; host or cells: A549
T2 sequence (P36897 34-503): T1 sequence (P36897 34-503)
Method: Determination of the Intracellular TGF-Beta Kinase Activity (ALK-5)
The experiments were carried out in A549 cell line. 30000 cells were seeded in 200 μl of culture medium (Sigma D6046) supplemented with L-Glutamine (Sigma G7513), Penicillin/Streptomycin (Invitrogen 11058) and FBS (Sigma F9665) on a 96 wells microplate (Becton Dickinson 353072). After 16 hours medium was changed to serum free medium. Galunisertib, as inhibitor ligand (Cayman CAY-15312) and recombinant Human TGF-β2 (R&D Systems 302-B2-002) as activator of the ALK-5, were added in their corresponding wells and incubated following the instructions of the Alphascreen AlphaLISA@SureFire® Ultra™ p-SMAD3(Ser423/425) Kit (Perkin Elmer ALSU-PSM3-A500).

## Cc1cccc(-c2nn(CC(=O)Nc3cc(F)cc(C(=O)OCCN(C)C)c3)cc2-c2ccnc3ccccc23)n1 [Example 1, 2-(dimethylamino)ethyl 3-fluoro-5-(2-(3-(6-methylpyridin-2-yl)-4-(quinolin-4-yl)-1H-pyrazol-1-yl)acetamido)benzoate]
Human TGFβR-1
  IC50: < 100 nM
[1]
  remaining percentage 0 min: 100%
  remaining percentage 30 min: 0%
  remaining percentage 120 min: 0%
  remaining percentage 360 min: 0%
ALK-5
  IC50: < 1000 nM

## Cc1cccc(-c2nn(CC(=O)Nc3cc(F)cc(C(=O)OCC4CCN(C)CC4)c3)cc2-c2ccnc3ccccc23)n1 [Example 9, (1-methylpiperidin-4-yl)methyl 3-fluoro-5-(2-(3-(6-methylpyridin-2-yl)-4-(quinolin-4-yl)-1H-pyrazol-1-yl)acetamido)benzoate]
Human TGFβR-1
  IC50: < 100 nM
[1]
  remaining percentage 0 min: 100%
  remaining percentage 30 min: 16.6%
  remaining percentage 120 min: 3.1%
  remaining percentage 360 min: 0%
ALK-5
  IC50: < 1000 nM

## Cc1cccc(-c2nn(CC(=O)Nc3ccc(C(=O)OCCN(C)C)nc3)cc2-c2ccnc3ccccc23)n1 [Example 5, 2-(dimethylamino)ethyl 5-(2-(3-(6-methylpyridin-2-yl)-4-(quinolin-4-yl)-1H-pyrazol-1-yl)acetamido)picolinate]
Human TGFβR-1
  IC50: < 100 nM
[1]
  remaining percentage 0 min: 100%
  remaining percentage 30 min: 10%
  remaining percentage 120 min: 0%
  remaining percentage 360 min: 0%
ALK-5
  IC50: > 1000 nM

## Cc1cccc(-c2nn(CC(=O)Nc3cc(F)cc(C(=O)OCCN4CCNCC4)c3)cc2-c2ccnc3ccccc23)n1 [Example 19, 2-(piperazin-1-yl)ethyl 3-fluoro-5-(2-(3-(6-methylpyridin-2-yl)-4-(quinolin-4-yl)-1H-pyrazol-1-yl)acetamido)benzoate]
Human TGFβR-1
  IC50: < 100 nM
[1]
  remaining percentage 0 min: 100%
  remaining percentage 30 min: 1.9%
  remaining percentage 120 min: 0.3%
  remaining percentage 360 min: 0%
ALK-5
  IC50: < 1000 nM

## Cc1cccc(-c2nn(CC(=O)Nc3cc(F)cc(C(=O)OC4CCNCC4)c3)cc2-c2ccnc3ccccc23)n1 [Example 21, piperidin-4-yl 3-fluoro-5-(2-(3-(6-methylpyridin-2-yl)-4-(quinolin-4-yl)-1H-pyrazol-1-yl)acetamido)benzoate]
Human TGFβR-1
  IC50: < 100 nM
[1]
  remaining percentage 0 min: 100%
  remaining percentage 30 min: 74.3%
  remaining percentage 120 min: 34.2%
  remaining percentage 360 min: 6.3%
ALK-5
  IC50: > 1000 nM

## Cc1cccc(-c2nn(CC(=O)Nc3cc(F)cc(C(=O)OCCN4CCOCC4)c3)cc2-c2ccnc3ccccc23)n1 [Example 4, 2-morpholinoethyl 3-fluoro-5-(2-(3-(6-methylpyridin-2-yl)-4-(quinolin-4-yl)-1H-pyrazol-1-yl)acetamido)benzoate]
Human TGFβR-1
  IC50: 100 to 250 nM
ALK-5
  IC50: < 1000 nM

## CCN(CC)CCOC(=O)c1cc(F)cc(NC(=O)Cn2cc(-c3ccnc4ccccc34)c(-c3cccc(C)n3)n2)c1 [Example 7, 2-(diethylamino)ethyl 3-fluoro-5-(2-(3-(6-methylpyridin-2-yl)-4-(quinolin-4-yl)-1H-pyrazol-1-yl)acetamido)benzoate]
Human TGFβR-1
  IC50: 100 to 250 nM
[1]
  remaining percentage 0 min: 100%
  remaining percentage 30 min: 16.0%
  remaining percentage 120 min: 3.3%
  remaining percentage 360 min: 0.1%
ALK-5
  IC50: < 1000 nM
